Measured values taken from ChEMBL document CHEMBL3885861, “Open TG-GATES”.

Organism: Rattus norvegicus
Assay: Open TG-GATES - Regimen: Daily Repeat
Assay type: toxicity, organism-based, Sprague-Dawley
Set-up: regimen Daily Repeat, gender Male, age 6 weeks
Details: in vivo, po, route gavage; for APTT / Bas / Eos / Fbg / Hb / Ht / Lym / MCHC / MCV / Mono / Neu / PT / Plat / RBC / Ret / WBC: tissue Blood; for KIDNEY_L / KIDNEY_R / KIDNEY_TOTAL: tissue Kidney; for LIVER: tissue Liver; for ALP / ALT / AST / BUN / CRE / Ca / Cl / DBIL / GLC / IP / K / LDH / Na / PL / RALB / TBIL / TC / TG / TP / gamma-GTP: tissue Plasma
[1] = 50 mg/kg, 72 h, dose level Middle, time 3 day
[2] = 50 mg/kg, […], dose level Middle, time 7 day
[3] = 50 mg/kg, […], dose level Middle, time 14 day
[4] = 50 mg/kg, […], dose level Middle, time 28 day
[5] = 150 mg/kg, 72 h, dose level High, time 3 day
[6] = 150 mg/kg, […], dose level High, time 7 day
[7] = 150 mg/kg, […], dose level High, time 14 day
[8] = 150 mg/kg, […], dose level High, time 28 day

## C1CCC(C(CC2CCCCN2)C2CCCCC2)CC1 (stereo not drawn) [PERHEXILINE]
[1]
  TERMINAL_BW: 222.3 g
  APTT: 19.9 s
  Bas: 0%
  Eos: 1%
  Fbg: 339.8 mg/dL
  Hb: 13.5 g/dL
  Ht: 40.4%
  Lym: 72.2%
  MCHC: 33.4%
  MCV: 62.8 fL
  Mono: 2.2%
  Neu: 23.2%
  PT: 16.5 s
  Plat: 125.7 x10_4/uL
  RBC: 643.2 x10_4/ul
  Ret: 6.1%
  WBC: 117.4 x10_2/uL
  KIDNEY_L: 1 g
  KIDNEY_R: 1 g
  KIDNEY_TOTAL: 2.1 g
  LIVER: 10.7 g
  ALP: 1647.4 IU/L
  ALT: 40 IU/L
  AST: 70.2 IU/L
  BUN: 13.6 mg/dL
  CRE: 0.1 mg/dL
  Ca: 10.8 mg/dL
  Cl: 107 meq/L
  DBIL: 0 mg/dL
  GLC: 184.8 mg/dL
  IP: 7.6 mg/dL
  K: 4.1 meq/L
  LDH: 241.2 IU/L
  Na: 141.8 meq/L
  PL: 146.8 mg/dL
  RALB: 3 g/dL
  TBIL: 0.008 mg/dL
  TC: 72.8 mg/dL
  TG: 125 mg/dL
  TP: 5.6 g/dL
  gamma-GTP: 0.8 IU/L
[2]
  TERMINAL_BW: 248.7 g
  APTT: 22.2 s
  Bas: 0%
  Eos: 0.6%
  Fbg: 314 mg/dL
  Hb: 14.1 g/dL
  Ht: 41.6%
  Lym: 79.8%
  MCHC: 33.9%
  MCV: 62.6 fL
  Mono: 1.6%
  Neu: 16.6%
  PT: 15.8 s
  Plat: 113.7 x10_4/uL
  RBC: 666.4 x10_4/ul
  Ret: 4.7%
  WBC: 85.4 x10_2/uL
  KIDNEY_L: 1 g
  KIDNEY_R: 1 g
  KIDNEY_TOTAL: 2.1 g
  LIVER: 11.3 g
  ALP: 1686.4 IU/L
  ALT: 38.8 IU/L
  AST: 67 IU/L
  BUN: 18 mg/dL
  CRE: 0.2 mg/dL
  Ca: 10.5 mg/dL
  Cl: 106.2 meq/L
  DBIL: 0 mg/dL
  GLC: 202 mg/dL
  IP: 7.3 mg/dL
  K: 4.1 meq/L
  LDH: 192 IU/L
  Na: 142.8 meq/L
  PL: 166.2 mg/dL
  RALB: 3.1 g/dL
  TBIL: 0.004 mg/dL
  TC: 78.4 mg/dL
  TG: 181 mg/dL
  TP: 5.8 g/dL
  gamma-GTP: 1 IU/L
[3]
  TERMINAL_BW: 302.3 g
  APTT: 23.1 s
  Bas: 0%
  Eos: 0.4%
  Fbg: 303 mg/dL
  Hb: 14 g/dL
  Ht: 40.8%
  Lym: 82.2%
  MCHC: 34.3%
  MCV: 61.7 fL
  Mono: 1.4%
  Neu: 15%
  PT: 15.8 s
  Plat: 118.8 x10_4/uL
  RBC: 662.8 x10_4/ul
  Ret: 5.3%
  WBC: 116.6 x10_2/uL
  KIDNEY_L: 1.2 g
  KIDNEY_R: 1.2 g
  KIDNEY_TOTAL: 2.3 g
  LIVER: 12.9 g
  ALP: 1470.4 IU/L
  ALT: 42.2 IU/L
  AST: 76.6 IU/L
  BUN: 18.6 mg/dL
  CRE: 0.2 mg/dL
  Ca: 10.7 mg/dL
  Cl: 107.4 meq/L
  DBIL: 0 mg/dL
  GLC: 209.8 mg/dL
  IP: 6.5 mg/dL
  K: 4.2 meq/L
  LDH: 231.4 IU/L
  Na: 143.2 meq/L
  PL: 155.2 mg/dL
  RALB: 3 g/dL
  TBIL: 0.002 mg/dL
  TC: 72.2 mg/dL
  TG: 178.6 mg/dL
  TP: 5.8 g/dL
  gamma-GTP: 1.6 IU/L
[4]
  TERMINAL_BW: 361.8 g
  APTT: 22.2 s
  Bas: 0%
  Eos: 0.6%
  Fbg: 314 mg/dL
  Hb: 14.1 g/dL
  Ht: 41.6%
  Lym: 79.8%
  MCHC: 33.9%
  MCV: 62.6 fL
  Mono: 1.6%
  Neu: 16.6%
  PT: 15.8 s
  Plat: 113.7 x10_4/uL
  RBC: 666.4 x10_4/ul
  Ret: 4.7%
  WBC: 85.4 x10_2/uL
  KIDNEY_L: 1.3 g
  KIDNEY_R: 1.3 g
  KIDNEY_TOTAL: 2.5 g
  LIVER: 15 g
  ALP: 1171.8 IU/L
  ALT: 39.8 IU/L
  AST: 67.2 IU/L
  BUN: 18.8 mg/dL
  CRE: 0.2 mg/dL
  Ca: 10.4 mg/dL
  Cl: 107 meq/L
  DBIL: 0 mg/dL
  GLC: 209.2 mg/dL
  IP: 6.6 mg/dL
  K: 4 meq/L
  LDH: 186.8 IU/L
  Na: 143 meq/L
  PL: 156.4 mg/dL
  RALB: 3.1 g/dL
  TBIL: 0.004 mg/dL
  TC: 71.6 mg/dL
  TG: 157.4 mg/dL
  TP: 6.1 g/dL
  gamma-GTP: 1.4 IU/L
[5]
  TERMINAL_BW: 212.7 g
  APTT: 22.7 s
  Bas: 0%
  Eos: 0.8%
  Fbg: 312.8 mg/dL
  Hb: 13.9 g/dL
  Ht: 41.3%
  Lym: 80%
  MCHC: 33.8%
  MCV: 61.4 fL
  Mono: 1.8%
  Neu: 16.5%
  PT: 16.8 s
  Plat: 130.8 x10_4/uL
  RBC: 673.2 x10_4/ul
  Ret: 4.4%
  WBC: 100 x10_2/uL
  KIDNEY_L: 1 g
  KIDNEY_R: 0.9 g
  KIDNEY_TOTAL: 1.9 g
  LIVER: 9.8 g
  ALP: 1606.6 IU/L
  ALT: 43.6 IU/L
  AST: 69 IU/L
  BUN: 15.4 mg/dL
  CRE: 0.2 mg/dL
  Ca: 11 mg/dL
  Cl: 106.6 meq/L
  DBIL: 0.002 mg/dL
  GLC: 187.2 mg/dL
  IP: 7.4 mg/dL
  K: 4 meq/L
  LDH: 267.2 IU/L
  Na: 142.4 meq/L
  PL: 150 mg/dL
  RALB: 3 g/dL
  TBIL: 0.006 mg/dL
  TC: 75.6 mg/dL
  TG: 107.8 mg/dL
  TP: 5.4 g/dL
  gamma-GTP: 1 IU/L
[6]
  TERMINAL_BW: 255.5 g
  APTT: 23.3 s
  Bas: 0%
  Eos: 0.6%
  Fbg: 313.8 mg/dL
  Hb: 14.3 g/dL
  Ht: 42.2%
  Lym: 79%
  MCHC: 33.9%
  MCV: 63.4 fL
  Mono: 1.4%
  Neu: 17.8%
  PT: 15.5 s
  Plat: 120.2 x10_4/uL
  RBC: 665.4 x10_4/ul
  Ret: 5.2%
  WBC: 103.4 x10_2/uL
  KIDNEY_L: 1.1 g
  KIDNEY_R: 1.2 g
  KIDNEY_TOTAL: 2.3 g
  LIVER: 11.9 g
  ALP: 1641 IU/L
  ALT: 35 IU/L
  AST: 61.8 IU/L
  BUN: 17.8 mg/dL
  CRE: 0.2 mg/dL
  Ca: 10.6 mg/dL
  Cl: 106.2 meq/L
  DBIL: 0 mg/dL
  GLC: 197.6 mg/dL
  IP: 8.1 mg/dL
  K: 4.3 meq/L
  LDH: 200.4 IU/L
  Na: 142.8 meq/L
  PL: 158.4 mg/dL
  RALB: 3 g/dL
  TBIL: 0.006 mg/dL
  TC: 76 mg/dL
  TG: 138.4 mg/dL
  TP: 5.7 g/dL
  gamma-GTP: 1.4 IU/L
[7]
  TERMINAL_BW: 291.9 g
  APTT: 22.3 s
  Bas: 0%
  Eos: 0.8%
  Fbg: 311 mg/dL
  Hb: 14.4 g/dL
  Ht: 41.8%
  Lym: 72%
  MCHC: 34.4%
  MCV: 59.9 fL
  Mono: 2.2%
  Neu: 24%
  PT: 15.8 s
  Plat: 115.8 x10_4/uL
  RBC: 697.8 x10_4/ul
  Ret: 4.7%
  WBC: 121.2 x10_2/uL
  KIDNEY_L: 1.2 g
  KIDNEY_R: 1.2 g
  KIDNEY_TOTAL: 2.4 g
  LIVER: 13 g
  ALP: 1470.2 IU/L
  ALT: 38 IU/L
  AST: 63.2 IU/L
  BUN: 18.2 mg/dL
  CRE: 0.2 mg/dL
  Ca: 10.7 mg/dL
  Cl: 105.8 meq/L
  DBIL: 0.004 mg/dL
  GLC: 206.6 mg/dL
  IP: 7.2 mg/dL
  K: 4.2 meq/L
  LDH: 180.2 IU/L
  Na: 143 meq/L
  PL: 151.8 mg/dL
  RALB: 3 g/dL
  TBIL: 0.008 mg/dL
  TC: 70 mg/dL
  TG: 154.6 mg/dL
  TP: 5.8 g/dL
  gamma-GTP: 1.2 IU/L
[8]
  TERMINAL_BW: 322.6 g
  APTT: 23.3 s
  Bas: 0%
  Eos: 0.6%
  Fbg: 313.8 mg/dL
  Hb: 14.3 g/dL
  Ht: 42.2%
  Lym: 79%
  MCHC: 33.9%
  MCV: 63.4 fL
  Mono: 1.4%
  Neu: 17.8%
  PT: 15.5 s
  Plat: 120.2 x10_4/uL
  RBC: 665.4 x10_4/ul
  Ret: 5.2%
  WBC: 103.4 x10_2/uL
  KIDNEY_L: 1.2 g
  KIDNEY_R: 1.2 g
  KIDNEY_TOTAL: 2.5 g
  LIVER: 12.8 g
  ALP: 1254 IU/L
  ALT: 39.8 IU/L
  AST: 62.8 IU/L
  BUN: 16 mg/dL
  CRE: 0.2 mg/dL
  Ca: 10.4 mg/dL
  Cl: 107.2 meq/L
  DBIL: 0 mg/dL
  GLC: 199.2 mg/dL
  IP: 6.4 mg/dL
  K: 4 meq/L
  LDH: 162.8 IU/L
  Na: 144.2 meq/L
  PL: 148 mg/dL
  RALB: 3 g/dL
  TBIL: 0.006 mg/dL
  TC: 68 mg/dL
  TG: 150.4 mg/dL
  TP: 5.9 g/dL
  gamma-GTP: 1 IU/L
